From ChEMBL document CHEMBL3885881, “DrugMatrix”

Species: Rattus norvegicus
Experiment: DrugMatrix - Regimen: Daily Repeat
Format: toxicity, organism-based, Sprague-Dawley
Set-up: regimen Daily Repeat, gender Male, age 6-8 weeks
Settings: in vivo, po, route oral GAVAGE, […]; for ABSOLUTE BASOPHIL / BASOPHIL / NUCLEATED RED BLOOD CELLS / ABSOLUTE EOSINOPHIL / EOSINOPHIL / HEMOGLOBIN / ABSOLUTE LYMPHOCYTE / ABSOLUTE MONOCYTE / ABSOLUTE SEGMENTED NEUTROPHIL / ERYTHROCYTE COUNT / HEMATOCRIT / LEUKOCYTE COUNT / LYMPHOCYTE / MEAN CORPUSCULAR HEMOGLOBIN / MEAN CORPUSCULAR HEMOGLOBIN CONCENTRATION / MEAN CORPUSCULAR VOLUME / MONOCYTE / NEUTROPHIL / PLATELET COUNT: tissue Blood; for TOTAL BILIRUBIN / ALANINE AMINOTRANSFERASE / ALBUMIN / ALKALINE PHOSPHATASE / ASPARTATE AMINOTRANSFERASE / BLOOD UREA NITROGEN / CARBON DIOXIDE / CHLORIDE / CHOLESTEROL / CREATINE PHOSPHOKINASE / CREATININE / GLUCOSE / LACTATE DEHYDROGENASE / LIPASE / PHOSPHORUS / POTASSIUM / SODIUM / TOTAL PROTEIN / URIC ACID: tissue Plasma
[1] = 0 mg/kg, 72 h, dose level Control, time 3 day
[2] = 0 mg/kg, 120 h, dose level Control, time 5 day
[3] = 3 mg/kg, 72 h, dose level Low, time 3 day
[4] = 3 mg/kg, 120 h, dose level Low, time 5 day
[5] = 9 mg/kg, 72 h, dose level M1, time 3 day

`CS(=O)(=O)OCCCCOS(C)(=O)=O` [BUSULFAN] was tested, and the “ABSOLUTE BASOPHIL” value [1] was 0 CELLS/uL, the BASOPHIL [1] was 0% and the “NUCLEATED RED BLOOD CELLS” value [1] was 0 /100WBC. For the same compound, the “TOTAL BILIRUBIN” value [1] was 0.2 mg/dL, the “ABSOLUTE BASOPHIL” value [2] was 0 CELLS/uL and the “ABSOLUTE EOSINOPHIL” value [2] was 0 CELLS/uL. It also gave a BASOPHIL [2] of 0%, an EOSINOPHIL [2] of 0% and an HEMOGLOBIN [2] of 13.5 G/DL. For the same compound, the “ABSOLUTE BASOPHIL” value [3] was 0 CELLS/uL, the “ABSOLUTE EOSINOPHIL” value [3] was 108.33 CELLS/uL and the “ABSOLUTE LYMPHOCYTE” value [3] was 8850.33 CELLS/uL. The “ABSOLUTE MONOCYTE” value [3] was 34.33 CELLS/uL, the “ABSOLUTE SEGMENTED NEUTROPHIL” value [3] was 773.67 CELLS/uL and the BASOPHIL [3] was 0%. For the same compound, the EOSINOPHIL [3] was 1%, the “ERYTHROCYTE COUNT” value [3] was 4.94 x10E6/uL and the HEMATOCRIT [3] was 32%. The HEMOGLOBIN [3] was 12.67 G/DL, the “LEUKOCYTE COUNT” value [3] was 9.77 x10E3/uL and the LYMPHOCYTE [3] was 91%. For the same compound, the “MEAN CORPUSCULAR HEMOGLOBIN” value [3] was 25.67 pg, the “MEAN CORPUSCULAR HEMOGLOBIN CONCENTRATION” value [3] was 39.6 G/DL and the “MEAN CORPUSCULAR VOLUME” value [3] was 64.8 fL. The MONOCYTE [3] was 0.33%, the NEUTROPHIL [3] was 7.67% and the “NUCLEATED RED BLOOD CELLS” value [3] was 0 /100WBC. The “PLATELET COUNT” value [3] was 940.33 x10E3/uL, the “ALANINE AMINOTRANSFERASE” value [3] was 62.33 u/L and the ALBUMIN [3] was 3.77 G/DL. For the same compound, the “ALKALINE PHOSPHATASE” value [3] was 286.67 u/L, the “ASPARTATE AMINOTRANSFERASE” value [3] was 86.67 u/L and the “BLOOD UREA NITROGEN” value [3] was 12.33 mg/dL. For the same compound, the “CARBON DIOXIDE” value [3] was 33.5 mmol/L, the CHLORIDE [3] was 101 MEQ/L and the CHOLESTEROL [3] was 62.33 mg/dL. For the same compound, the “CREATINE PHOSPHOKINASE” value [3] was 229.33 u/L, the CREATININE [3] was 0.12 mg/dL and the GLUCOSE [3] was 162.67 mg/dL. For the same compound, the “LACTATE DEHYDROGENASE” value [3] was 71.67 u/L, the LIPASE [3] was 12 u/L and the PHOSPHORUS [3] was 10 mg/dL. For the same compound, the POTASSIUM [3] was 5.22 MEQ/L, the SODIUM [3] was 144.35 MEQ/L and the “TOTAL BILIRUBIN” value [3] was 0.13 mg/dL. For the same compound, the “TOTAL PROTEIN” value [3] was 5.37 G/DL, the “URIC ACID” value [3] was 0.47 mg/dL and the “ABSOLUTE BASOPHIL” value [4] was 0 CELLS/uL. The “ABSOLUTE EOSINOPHIL” value [4] was 12.67 CELLS/uL, the “ABSOLUTE LYMPHOCYTE” value [4] was 5804 CELLS/uL and the “ABSOLUTE MONOCYTE” value [4] was 73.33 CELLS/uL. For the same compound, the “ABSOLUTE SEGMENTED NEUTROPHIL” value [4] was 310 CELLS/uL, the BASOPHIL [4] was 0% and the EOSINOPHIL [4] was 0.33%. For the same compound, the “ERYTHROCYTE COUNT” value [4] was 5.4 x10E6/uL, the HEMATOCRIT [4] was 33.53% and the HEMOGLOBIN [4] was 12.9 G/DL. The “LEUKOCYTE COUNT” value [4] was 6.2 x10E3/uL, the LYMPHOCYTE [4] was 92.67% and the “MEAN CORPUSCULAR HEMOGLOBIN” value [4] was 23.9 pg. For the same compound, the “MEAN CORPUSCULAR HEMOGLOBIN CONCENTRATION” value [4] was 38.5 G/DL, the “MEAN CORPUSCULAR VOLUME” value [4] was 62.07 fL and the MONOCYTE [4] was 1.33%. The NEUTROPHIL [4] was 5.67%, the “NUCLEATED RED BLOOD CELLS” value [4] was 0 /100WBC and the “PLATELET COUNT” value [4] was 1068.67 x10E3/uL. The “ALANINE AMINOTRANSFERASE” value [4] was 47.67 u/L, the ALBUMIN [4] was 4.13 G/DL and the “ALKALINE PHOSPHATASE” value [4] was 363 u/L. For the same compound, the “ASPARTATE AMINOTRANSFERASE” value [4] was 87 u/L, the “BLOOD UREA NITROGEN” value [4] was 12.33 mg/dL and the “CARBON DIOXIDE” value [4] was 28.67 mmol/L. The CHLORIDE [4] was 100 MEQ/L, the CHOLESTEROL [4] was 62 mg/dL and the “CREATINE PHOSPHOKINASE” value [4] was 290.67 u/L. The CREATININE [4] was 0.16 mg/dL, the GLUCOSE [4] was 165.67 mg/dL and the “LACTATE DEHYDROGENASE” value [4] was 77.67 u/L. For the same compound, the LIPASE [4] was 13.33 u/L, the PHOSPHORUS [4] was 9.3 mg/dL and the POTASSIUM [4] was 5.76 MEQ/L. For the same compound, the SODIUM [4] was 145.25 MEQ/L, the “TOTAL BILIRUBIN” value [4] was 0.17 mg/dL and the “TOTAL PROTEIN” value [4] was 6 G/DL. The “URIC ACID” value [4] was 0.53 mg/dL, the “ABSOLUTE BASOPHIL” value [5] was 0 CELLS/uL and the “ABSOLUTE EOSINOPHIL” value [5] was 0 CELLS/uL. The “ABSOLUTE LYMPHOCYTE” value [5] was 12304.67 CELLS/uL, the “ABSOLUTE MONOCYTE” value [5] was 88.33 CELLS/uL and the “ABSOLUTE SEGMENTED NEUTROPHIL” value [5] was 840.33 CELLS/uL. For the same compound, the BASOPHIL [5] was 0%, the EOSINOPHIL [5] was 0% and the “ERYTHROCYTE COUNT” value [5] was 5.46 x10E6/uL. For the same compound, the HEMATOCRIT [5] was 33.63%, the HEMOGLOBIN [5] was 13.23 G/DL and the “LEUKOCYTE COUNT” value [5] was 13.23 x10E3/uL. For the same compound, the LYMPHOCYTE [5] was 92.67%, the “MEAN CORPUSCULAR HEMOGLOBIN” value [5] was 24.27 pg and the “MEAN CORPUSCULAR HEMOGLOBIN CONCENTRATION” value [5] was 39.37 G/DL. The “MEAN CORPUSCULAR VOLUME” value [5] was 61.57 fL, the MONOCYTE [5] was 0.67% and the NEUTROPHIL [5] was 6.67%. For the same compound, the “NUCLEATED RED BLOOD CELLS” value [5] was 0 /100WBC, the “PLATELET COUNT” value [5] was 1234.33 x10E3/uL and the “ALANINE AMINOTRANSFERASE” value [5] was 56.33 u/L. For the same compound, the ALBUMIN [5] was 4.03 G/DL, the “ALKALINE PHOSPHATASE” value [5] was 362 u/L and the “ASPARTATE AMINOTRANSFERASE” value [5] was 76 u/L. The “BLOOD UREA NITROGEN” value [5] was 13 mg/dL, the “CARBON DIOXIDE” value [5] was 29.33 mmol/L and the CHLORIDE [5] was 102.33 MEQ/L. The CHOLESTEROL [5] was 77 mg/dL, the “CREATINE PHOSPHOKINASE” value [5] was 320.33 u/L and the CREATININE [5] was 0.19 mg/dL. For the same compound, the GLUCOSE [5] was 162.67 mg/dL, the “LACTATE DEHYDROGENASE” value [5] was 161.33 u/L and the LIPASE [5] was 12 u/L. For the same compound, the PHOSPHORUS [5] was 10.37 mg/dL.
